{"source": "patent US20250281528A1", "about": "“GRAPHENE OXIDE-CATIONIC SILVER NANOCOMPOSITES AND THEIR USE AS BROAD-SPECTRUM ANTIMICROBIAL AGENTS” (priority 2020, published 2025)", "origin": "cited, not measured here", "conditions_in_all_cases": "literature values, refs in Table 6 footnotes", "key": {"Streptococcus pyogenes": {"test_system": "Streptococcus pyogenes"}, "Vibrio cholerae": {"test_system": "Vibrio cholerae"}, "Salmonella typhi": {"test_system": "Salmonella typhi"}, "Candida albicans": {"test_system": "Candida albicans"}}, "data": [{"compound": "O=[N+]([O-])[O-].[Ag+]", "note": "[AgNO3, Silver Nitrate]", "values": [{"measurement": "MIC", "setting": "Streptococcus pyogenes", "result": "80 ^c μg/mL"}, {"measurement": "MIC", "setting": "Vibrio cholerae", "result": "70 ^c μg/mL"}, {"measurement": "MIC", "setting": "Salmonella typhi", "result": "110 ^c μg/mL"}, {"measurement": "MIC", "setting": "Candida albicans", "result": "4.9 ^f μg/mL"}]}]}
